# Laboratory results published in patent publication US10774047B2 (THE TRUSTEES OF THE UNIVERSITY OF PENNSYLVANIA, priority 2015, dated 2020).
# “Also recorded” adds a separate entry of the source.
# What was measured:
# [1] = test system: 451Lu (melanoma) cells; assay: Bafilomycin clamp experiment (autophagic flux); assay type: cell-based; settings: 3 μM, with or without bafilomycin-A1, 24 hours
# [2] = test system: ATG5 WT and ATG5-null MEFs; assay: Long-term colony formation in ATG5+/+ and ATG5-/- MEFs; assay type: cell-based; settings: 2 weeks, 10-300 nM
# Protocol: (G) Long-term colony formation assays were performed with ATG5+/+ and ATG5−/− MEFs treated with DQ661 (2 weeks, 10-300 nM). Cells were subsequently stained with crystal violet and imaged.
# The clonogenic assay was performed as previously described. Briefly, cells were suspended in appropriate culture media, and plated in 6-well plates (2×10^3 cells/well). Medium was changed and drug treatment refreshed every 3-4 days for 2 weeks. Cells were subsequently stained with crystal violet and quantified.
# [3] = test system: A375P cells; assay: Galectin-3 punctae assay (lysosomal membrane permeabilization); assay type: cell-based; settings: 6 hours (LLOMe 3 hr, 2 mM)
# Protocol: FIG. 3: Central nitrogen methylation status dictates DNA damage versus lysosomal membrane permeability. […] Cells were imaged with fluorescent microscopy, phospho-H2AX+ cells were scored using ImageJ software analysis and quantified to the right. (B) A375P cells were treated identical to the conditions in (A), with the addition of the positive control LLoMe (3 hr, 2 mM). Cells were subsequently stained with galectin-3 and imaged with fluorescent microscopy. The formation of galectin-3 punctae, which signify lysosomal membrane permeabilization, are pointed out with yellow arrows.
# When lysosomes are healthy, galectin-3 is uniformly dispersed throughout the cell. However, when the lysosome is damaged, galectin-3 rapidly localizes to the site of damaged lysosomes, appearing as punctae and marking individual leaky lysosomes.
# [4] = test system: 1205Lu melanoma xenografts; assay: 1205Lu melanoma xenograft model; assay type: in vivo, NSG mice
# Protocol: (§1) FIG. 5: DQ661 has significant single-agent in vivo activity in melanoma xenograft model. […]. Mice were randomly split into 4 arms and treated with vehicle control (water, i.p.), quinacrine (8 mg/kg, i.p.), DQ660 (8 mg/kg, i.p.) or DQ661 (8 mg/kg, i.p.). Treatments were given as shown by the black arrows, following a regimen of 2 days on treatment followed by 2 days off treatment. (C) Representative electron micrographs from melanoma xenograft tumors harvested after 2 days of treatment according to (B). (D) Average tumor volumes for each treatment arm are shown. Each point represents the mean of N=8 mice per treatment arm and the error bars represent standard error (s.e.) (C) Representative EM for tumors treated in each arm. (E) A schematic for how mice were treated in (F). […]. Mice were randomly split into 3 arms and treated with water (i.p.), DQ661 (2 mg/kg, i.p.) or DQ661 (4 mg/kg, i.p.). Treatments were give as shown by the black arrows, following a regimen of 2 days on treatment followed by 2 days […]. Tumor volume is shown. Each point represents the mean of N=8 mice per treatment arm and the error bars represent s.e. (G) Average tumor growth rate for each treatment arm are shown. (H) Protein lysate was harvested from mouse tumors at the end of the experiment and immunoblotted for LC3B, phospho-4E-BP1 T37_T65, phospho-4E-BP1 S240_S244 and Actin. Quantification of proteins standardized to control mice levels are shown to the right.
# (§2) Five to seven-week old NOD-scid gamma (NSG) mice (Jackson Laboratory) were used for xenograft studies with the 1205Lu melanoma cell line. Tumor generation, tumor measurement and tumor harvesting performed as previously described (ref). For the pancreatic cancer model, five to seven-week old C57BL/6 mice (Jackson Laboratory) and maintained under pathogen-free conditions. 2×10^6 G43 cells were subcutaneously injected with an equal volume of matrigel (BD) over the right flank […] and tumors became palpable after 5-6 days. Mice were enrolled on day 6 and given Gemcitabine (120 mg/kg, i.p.). DQ661 (4 mg/kg, i.p.) was given on days 7, 8, 12, 13, 17 and 18. Perpendicular tumor diameters were measured sing electronic calipers and volume was calculated leveraging the formula L×W^2×0.5, where L is the longest dimension and W is the perpendicular dimension. All animal experiments were performed in accordance to the protocols approved by the Institute of Animal Care and Use Committee of the University of Pennsylvania.
# . After 1-2 weeks, tumors were palpable and mice were treated with vehicle control (water), quinacrine (8 mg/kg), DQ660 (8 mg/kg) or DQ661 (8 mg/kg) i.p (FIG. 5A). […]. Therefore another 1205Lu xenograft experiment was performed with mice treated with either vehicle control (water, n=6) or DQ661 (2 or 4 mg/kg, n=6) for a period of 14 days (FIG. 5e, 5F).
# [5] = Tolerability in 1205Lu xenograft-bearing mice; assay type: in vivo
# Protocol: as §1, §2
# . After 1-2 weeks, tumors were palpable and mice were treated with vehicle control (water), quinacrine (8 mg/kg), DQ660 (8 mg/kg) or DQ661 (8 mg/kg) i.p (FIG. 5A). […]. […]
# [6] = test system: G43 cells; assay: G43 KPC pancreatic cancer syngeneic model; assay type: in vivo, C57BL/6 mice; settings: gemcitabine 120 mg/kg i.p. once; DQ661 4 mg/kg i.p. 2 days on 3 days off
# Protocol: FIG. 6: DQ661 potentiates in vivo activity of gemcitabine in KPC pancreatic cancer syngeneic model. (A) 4664 and G43 cells were treated with gemcitabine (72 hr, 3-30 nM). MTT was subsequently added and cell viability was determined by standardizing absorbance to control wells. (B) G43 cells were treated chronically for 2 weeks with gemcitabine (3-30 nM) in the presence or absence of DQ661 (30-300 nM) in colony formation assays. Cells were subsequently stained with crystal violet and imaged. (C) A schematic for how mice were treated in (D). G43 cells were injected into C57BL/6 mice (2×10^6 cells/mouse. Once palpable, mice were treated with vehicle (water, PBS), gemcitabine (120 mg/kg, i.p., once at day 6), DQ661 (4 mg/kg, i.p., starting on day 7 according to the regimen of 2 days on treatment followed by 3 days off treatment) or a combination of gemcitabine and DQ661. (D) Average tumor volumes for each treatment arm are shown. Each point represents the mean of N=8 mice per treatment arm and the error bars represent s.e. (E) Tumor growth rate from (D).
# Five to seven-week old NOD-scid gamma (NSG) mice (Jackson Laboratory) were used for xenograft studies with the 1205Lu melanoma cell line. […] Perpendicular tumor diameters were measured sing electronic calipers and volume was calculated leveraging the formula L×W^2×0.5, where L is the longest dimension and W is the perpendicular dimension. […]
# [7] = test system: mTORC1; assay: mTOR / LAMP2 co-localization imaging; settings: A375P cells, 6 hours, 3 μM
# [8] = test system: mTORC1; assay: Immunoblot of mTORC1 signaling and LC3B, panel of lysosomal inhibitors; settings: A375P cells
# [9] = test system: autophagy; settings: background; cited from earlier work
# [10] = test system: G43 cells; assay: MTT viability of 4664 and G43 KPC pancreatic cancer cells; assay type: cell-based, mouse; settings: 72 hr
# Protocol: FIG. 6: DQ661 potentiates in vivo activity of gemcitabine in KPC pancreatic cancer syngeneic model. (A) 4664 and G43 cells were treated with gemcitabine (72 hr, 3-30 nM). MTT was subsequently added and cell viability was determined by standardizing absorbance to control wells. (B) G43 cells were treated chronically for 2 weeks with gemcitabine (3-30 nM) in the presence or absence of DQ661 (30-300 nM) in colony formation assays. Cells were subsequently stained with crystal violet and imaged. (C) A schematic for how mice were treated in (D). […]
# For MTT assays, cells were plated in 96-well plates (2,000 cells/well), allowed to adhere overnight, and subsequently treated in triplicate for 72 hours. MTT reagent (Roche) was applied, cells were solubilized and absorbance was read at 570 nm, with background subtraction at 690 nm. […] Cells were subsequently stained with crystal violet and quantified. […]
SMILES,effect on autophagic flux (LC3II/LC3I ratio with vs without bafilomycin-A1) [1],cytotoxicity in ATG5 WT vs ATG5-null MEFs [2],galectin-3 staining pattern [3],"tumor growth ([4]; 8 mg/kg i.p., 2 days on / 2 days off)","autophagy in tumors (electron microscopy) ([4]; 8 mg/kg i.p., tumors harvested after 2 days of treatment)","tumor growth rate ([4]; 2 or 4 mg/kg i.p., 14 days)","tumor volume and tumor weight ([4]; 2 or 4 mg/kg i.p., 14 days)","Western blotting of tumor lysate (LC3, p62, phospho-4EBP1, phospho-S6) ([4]; 2 or 4 mg/kg i.p., end of experiment)",clinical outcome by day 7 ([5]; 8 mg/kg i.p.),histological analysis of the intestines and liver ([5]; 8 mg/kg i.p.),weight loss of mice ([5]; 8 mg/kg i.p.),"mice weight ([5]; 2 or 4 mg/kg i.p., 14 days)",tumor growth [6],mTOR and lysosomal (LAMP2) co-localization [7],autophagy inhibition (accumulation of LC3II/LC3I levels) among lysosomal inhibitors ([8]; 3 μM),"S6K (and 4E-BP1) phosphorylation ([8]; DQ661 3 μM, PET 10 μM, Bafilomycin A1 100 nM)","mTORC1 activity (Western blotting) ([8]; DQ661 3 μM, Pepstatin A 10 μG/mL, Siramesine 8 μM)",concentrations required to inhibit autophagy [9],sensitivity of G43 cells relative to parental 4664 cells [10]
COc1ccc2nc3cc(Cl)ccc3c(NCCCCCCN(C)CCCCCCNc3c4ccc(Cl)cc4nc4ccc(OC)cc34)c2c1 [DQ 661],autophagy inhibitors,equal cytotoxicity in ATG5 WT and ATG5-null MEFs; also recorded: equivalent activity,punctate distribution of galectin-3,inhibited tumor growth to the greatest extent,inhibited autophagy as seen by electron microscopy of mouse tumors,significantly slower rates of growth,significant reduction in tumor volume and tumor weight compared to control mice,concurrent in vivo autophagy inhibition and mTORC1 inhibition,all mice were euthanized due to lethargy and bowel distension,Paneth cell dysfunction,greater than 10%,without significantly effect mice weight,significantly impaired,loss of mTOR and lysosomal co-localization,greatest ability to inhibit autophagy among the entire panel of lysosomal inhibitors,inhibit S6K and 4E-BP1 to a similar degree as the classical control of amino acid starvation,potently inhibits mTORC1 activity,,
"CCN(CCO)CCCC(C)Nc1ccnc2cc(Cl)ccc12 (centres unmarked) [HCQ, hydroxychloroquine]",,,,,,,,,,,,,,,,,,High micromolar concentrations,
"Nc1ccn([C@@H]2O[C@H](CO)[C@@H](O)C2(F)F)c(=O)n1 [gemcitabine, reference compound]",,,,,,,,,,,,,significantly impaired,,,,,,"resistant to gemcitabine, relative to the parental treatment naïve 4664 cells"
